The text below walks through data of publication PMC10418970, “Effective and Selective Ru(II)-Arene Complexes Containing 4,4′-Substituted 2,2′ Bipyridine Ligands Targeting Human Urinary Bladder Cancer Cells” (International Journal of Molecular Sciences, 2023).

The test system of series [1] is MCF-10a-breast epithelial cells. In words: MTT cell proliferation assay, MCF-10a. The format is cell-based, human. As to conditions: 24 h incubation; healthy cells.
Another series relates to Vero cells. Kind of series: MTT cell proliferation assay, Vero. The format is cell-based, African green monkey. As to conditions: 24 h incubation; healthy cells.
Series [2] concerns EA.hy926 endothelial cells. In words: MTT cell proliferation assay, EA.hy926. The format is cell-based, human. To be noted: 24 h incubation.
The next series relates to HepG-2-hepatic cells. Kind of series: MTT cell proliferation assay, HepG-2. The format is cell-based, human. To be noted: 24 h incubation.
The next series has as its system T24-bladder cells. In words: MTT cell proliferation assay, T24. The format is cell-based, human. As to conditions: 24 h incubation.
Another series has as its system EB-CTDNA adduct. Kind of series: EB/CTDNA fluorescence competition (quenching). As to conditions: [DNA] 5 μM, [EB] 5 μM, complex 0-50 μM. The format is binding, calf. The protocol:
To learn more about the binding properties of 1–7 with CTDNA, the fluorescence competition technique is employed. EB is an orange fluorescent dye and an intercalating agent for DNA.
3.2 Fluorescence titration experiments
The displacement of the EB-bound was obtained by
treated with a saturating ethidium bromide 5 µM.
Figure S5. […] [DNA]= 5 µM,
[EB] = 5 µM and [complex] = 0˗50 µM. […]

Series [3] has as its target T1, Bovine serum albumin (BSA) (Bos taurus, UniProt P02769).
T1 construct: purchased Sigma Aldrich
Kind of series: BSA fluorescence titration (Stern-Volmer, Scatchard). The format is binding. To be noted: for number of binding sites (n) on BSA: Scatchard equation; for BSA quenching constant Kq: [BSA] 1 μM, complex 0-20 μM, phosphate buffer pH 7.2. The text has this: To explore the mode of complex-protein interaction, we monitor the BSA fluorescence quenching at […] by addition of increasing amounts of 1–7 to a fixed quantity of BSA (Figure S7). […] The molar absorptivity of tyrosine and phenylalanine are 10- and 200-fold weaker than tryptophan, respectively, and are ignored in the modelling. […] The complex binding-induced fluorescence quenching is described by the linear Stern–Volmer relationship (Figure 12A) to obtain the quenching constant Kq (see SI for details). Further, the equilibrium binding constant (Kb) of the complex to BSA and the number of binding sites (n) are obtained by casting the fluorescence intensity in the absence of quencher (F^0) and quencher concentration [Q] dependent F into the Scatchard equation [35]: log [(F^0− F)/F] = log Kb + n log[Q], as shown in Figure 12B.
4 Interaction of complexes with Bovine serum albumin
4.1 Fluorescence titration
The interaction of complexes with BSA was studied using fluorescence spectra, recorded at a fixed excitation wavelength corresponding to BSA at 280 nm and monitoring the emission at 335 nm. Stock solution of BSA were prepared by dissolving commercial BSA in 50mM phosphate buffer (pH 7.2) and stored at 4 οC for further use.
Concentrated stock solution of each test compound were prepared by dissolving it in DMF-phosphate buffer (5:95) and diluted with phosphate buffer to get required concentrations. For the fluorescence measurements, 2.5 mL solution of BSA was titrated with successive additions of […] stock solution of complexes (0-20 µM) […]
Figure S7. Fluorescence quenching curves of BSA in the absence and presence of complexes 1-7. […]

In the next series the test system is T24 cells. Kind of series: Flow cytometry FITC Annexin V apoptosis assay. As to conditions: at IC50 concentration (1: […]; 2: 14.5 μM). The format is cell-based, human. The procedure:
Figure S10. Cytotoxic effects of complexes ( 1-7) against (A) EA.hy-926, (B) HepG-2, (C) T24, (D) normal kidney (Vero) cells
and (E) MCF-10a-breast epithelial . Data expressed in SD±mean with three replicates.
After 24 h incubation, control and treated cells were stained with acriddine
orange (AO)/ethidium bromide (EB) and incubated for 10 min. The images were taken immediately under fluorescent
8. Flow cytometry studies
The cell apoptotic rate was determined by flow cytometry analysis with the fluorescein isothiocyanate (FITC)
Annexin V apoptosis detection kit (Multi Sciences, China). T24 cancer cells were collected by trypsinization, washed
twice and resuspended in […], 1 × binding buffer with […] of FITC Annexin V and […] of PI. After incubation for
15 min, the samples were subjected to analysis by flow cytometry. The results were analysed with the BD FACS Calibur™
(1 picture or pasted object on this page, not shown here)

Series [4] is described as follows: Shake-flask water-octanol Log p. To be noted: n-octanol / water containing 0.45% sodium chloride, 0.5 mM, 37 °C.
Experimental: The complex was dissolved in a mixture with equal volumes of pre-saturated n-octanol and water to a final concentration of 0.5 mM. The mixture was shaken at 250 rpm for 24 h at 37 °C and then centrifuged at 3000 rpm for 10 min. The complex concentration (C) in each phase was measured by UV-Vis spectroscopy and used to calculate Log p, according to the formula Log p = log (Coctanol/Cwater).

T1 sequence (P02769 25-607): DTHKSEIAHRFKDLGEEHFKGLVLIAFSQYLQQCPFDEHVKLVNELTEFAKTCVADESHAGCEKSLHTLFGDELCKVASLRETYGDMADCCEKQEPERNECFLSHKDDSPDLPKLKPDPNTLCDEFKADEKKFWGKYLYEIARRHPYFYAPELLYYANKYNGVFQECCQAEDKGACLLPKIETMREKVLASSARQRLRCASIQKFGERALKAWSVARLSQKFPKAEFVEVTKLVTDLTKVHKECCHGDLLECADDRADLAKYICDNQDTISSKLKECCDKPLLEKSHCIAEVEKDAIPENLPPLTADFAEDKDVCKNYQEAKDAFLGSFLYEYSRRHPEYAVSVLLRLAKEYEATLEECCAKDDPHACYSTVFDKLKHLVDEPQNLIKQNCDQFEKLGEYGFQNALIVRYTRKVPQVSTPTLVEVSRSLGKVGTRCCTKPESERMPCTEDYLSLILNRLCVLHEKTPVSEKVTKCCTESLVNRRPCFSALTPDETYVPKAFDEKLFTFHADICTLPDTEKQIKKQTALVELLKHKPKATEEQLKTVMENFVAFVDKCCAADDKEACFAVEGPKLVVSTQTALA

`N.N.[Cl][Pt][Cl]` [Cisplatin, reference compound]: the IC50 is 29.1 µM in series [1]; 33.7 µM in the series with Vero cells; 22.9 µM in series [2]; 49.1 µM with HepG-2-hepatic cells; greater than 50 µM in the series on T24-bladder cells.

On to `Cc1ccc(C(C)C)cc1.O=C(O)c1ccnc(-c2cc(C(=O)O)ccn2)c1.[Cl-].[Cl-].[Ru+2]` [Complex 2, [Ru-η^6-p-cymene-(4,4′-(COOH)2bipy)Cl]Cl], for which the “Stern–Volmer quenching constant Kq (EB/CTDNA)” value in the series on EB-CTDNA adduct is listed as 4.89 10^4 M^−1. Also, in series [3], the “number of binding sites (n) on BSA” value is 1.2. The “BSA quenching constant Kq” value in series [3] is listed as 6.446 × 10^4 10^4 M^−1. Besides, the IC50 is greater than 50 µM in [1]; greater than 50 µM with Vero cells; greater than 50 µM in series [2]; greater than 50 µM in the series on HepG-2-hepatic cells; 14.5 µM in the series with T24-bladder cells. Also, the “apoptotic rate (late + early)” value in the series with T24 cells was 18.24%. In the series on T24 cells, the “early apoptosis (Q3)” value was determined as 10.9%. Further, in the series on T24 cells, the “late apoptosis (Q2)” value is 7.34%. In addition, in the series “Solubility (observation)”, the solubility result is “more soluble in high polar organic solvents”. For the same compound, the “Log p Exp. Shake Flask” value in series [4] is −1.65.

In the case of `COC(=O)c1ccnc(-c2cc(C(=O)OC)ccn2)c1.Cc1ccc(C(C)C)cc1.[Cl-].[Cl-].[Ru+2]` [Complex 3, [Ru-η^6-p-cymene-(4,4′-(COOCH3)2bipy)Cl]Cl], in the series with EB-CTDNA adduct, the “Stern–Volmer quenching constant Kq (EB/CTDNA)” value is recorded as 6.05 10^4 M^−1. The “apparent DNA binding constant Kapp” value in the series on EB-CTDNA adduct is listed as 3.02 10^6 M^−1. For the same compound, the “number of binding sites (n) on BSA” value in series [3] turned out to be 1.0. For the same compound, the “BSA quenching constant Kq” value in [3] was 3.622 × 10^4 10^4 M^−1. The IC50 in series [1] was greater than 50 µM; with Vero cells, 45.6 µM; in [2], 30.8 µM; with HepG-2-hepatic cells it was greater than 50 µM; in the series with T24-bladder cells, 21.2 µM.

Regarding `CCOC(=O)c1ccnc(-c2cc(C(=O)OCC)ccn2)c1.Cc1ccc(C(C)C)cc1.[Cl-].[Cl-].[Ru+2]` [Complex 4, [Ru-η^6-p-cymene-(4,4′-(COOC2H5)2bipy)Cl]Cl], the “Stern–Volmer quenching constant Kq (EB/CTDNA)” value in the series with EB-CTDNA adduct is 6.36 10^4 M^−1. Besides, the “apparent DNA binding constant Kapp” value in the series with EB-CTDNA adduct is 3.18 10^6 M^−1. The “number of binding sites (n) on BSA” value in series [3] is given as 1.0. The “BSA quenching constant Kq” value in series [3] was 3.777 × 10^4 10^4 M^−1. Further, the concentration for half-maximal inhibition (IC50) in series [1] was found to be 40.1 µM; in the series on Vero cells it was 31.2 µM; in series [2] it was 32.3 µM; in the series with HepG-2-hepatic cells, 21.1 µM; in the series on T24-bladder cells it was 12.3 µM. For the same compound, the “Log p Exp. Shake Flask” value in series [4] came out at 0.88.

Regarding `CC(C)(C)c1ccnc(-c2cc(C(C)(C)C)ccn2)c1.[Cl-].[Cl-].[Ru+2].c1ccccc1` [Complex 5, [Ru-η^6-benzene-(4,4′-(C4H9)2bipy)Cl]Cl], in series [4], the “Log p Exp. Shake Flask” value is given as 2.45.

With `COC(=O)c1ccnc(-c2cc(C(=O)OC)ccn2)c1.[Cl-].[Cl-].[Ru+2].c1ccccc1` [Complex 6, [Ru-η^6-benzene-(4,4′-(COOCH3)2bipy)Cl]Cl], the “Stern–Volmer quenching constant Kq (EB/CTDNA)” value with EB-CTDNA adduct is listed as 6.69 10^4 M^−1. Further, the “apparent DNA binding constant Kapp” value in the series on EB-CTDNA adduct is on record as 3.34 10^6 M^−1. Also, the “number of binding sites (n) on BSA” value in [3] is on record as 1.0. For the same compound, the “BSA quenching constant Kq” value in series [3] is on record as 3.103 × 10^4 10^4 M^−1. For the same compound, the IC50 in series [1] is greater than 50 µM; in the series on Vero cells, 49.2 µM; in series [2], 49.3 µM; in the series with HepG-2-hepatic cells it was 14.5 µM; in the series with T24-bladder cells, 41.2 µM. In series [4], the “Log p Exp. Shake Flask” value is on record as −1.12.

Consider `CCOC(=O)c1ccnc(-c2cc(C(=O)OCC)ccn2)c1.[Cl-].[Cl-].[Ru+2].c1ccccc1` [Complex 7, [Ru-η^6-benzene-(4,4′-(COOC2H5)2bipy)Cl]Cl], for which the “Stern–Volmer quenching constant Kq (EB/CTDNA)” value in the series on EB-CTDNA adduct is reported as 7.21 10^4 M^−1. In addition, the “apparent DNA binding constant Kapp” value in the series on EB-CTDNA adduct is 3.61 10^6 M^−1. For the same compound, the “number of binding sites (n) on BSA” value in series [3] was determined as 1.1. In addition, the “BSA quenching constant Kq” value in [3] is listed as 4.779 × 10^4 10^4 M^−1. Also, the IC50 is greater than 50 µM in series [1]; 33.9 µM with Vero cells; 23.8 µM in series [2]; 41.6 µM in the series on HepG-2-hepatic cells; 19.8 µM in the series with T24-bladder cells. Moreover, in [4], the “Log p Exp. Shake Flask” value is −0.14.
